Patent publication US10711007B2, “Selective inhibitors of protein arginine methyltransferase 5 (PRMT5)” (Prelude Therapeutics, Incorporated, priority 2018, dated 2020)

Experiments:
U-87 MG cells = assay: Cell proliferation assay (CCK-8, day 10) in U-87 MG cells; type: cell-based; settings: Homo sapiens, 240 h, U-87 MG cell line, read-out: Prolif. IC50
Description: Cell Proliferation Assay to Determine IC50 in Granta-519 and U-87 MG Cells
One day before experiment, Granta-519 cells were passaged to a density of 0.5×10^6 cells/ml. U-87 MG cells were trypsinized and 2,000 cells were seeded into 96-well plates and allow to grow overnight. On the day of experiment (day 0), Granta-519 Cells were spun down at 1,500 rpm for 4 min, resuspended in fresh medium to 0.5×10^6 cells/ml and 190 ul of cells were added to 96 well plates. For U-87 MG cells, old medium was removed and replaced with 190 uL fresh medium. Compound working stocks were first diluted at 1:50 with fresh medium in 96 well plate and 10 μL of diluted drugs were added to 96 well plates containing cells and incubated for 3 days. DMSO was used a vehicle control.
One day 3, 50 uL of Granta-519 cells were transferred to a new 96-well plate and 140 uL fresh medium was added. For U-87 MG cells, old medium was removed and replaced with 190 uL fresh medium. Compound working stocks were freshly diluted at 1:50 with medium and 10 μL of diluted drugs were added to cells and grow for 3additional days. The same process was repeated on day 6. Cells were allowed to grow for additional 4 days.
On day 10, 100 uL Granta-519 cells were transferred to a new 96 well plate and 10 μL of Cell Counting Kit-8 (CCK-8, Jojindo, CK04-13) solution was added. For U-87 MG cells, old medium was removed and replaced with 100 uL fresh medium and 10 uL CCK-8 solution was added. Plates were incubated in CO2 incubator for 2 hours (Granta-519 cells) or 30 min (U-87 MG cells) and OD450 values were measured with a microplate reader (iMark microplate reader, Bio-Rad). Percentage of viable cells, relative to DMSO vehicle control, were calculated and plotted in Graphpad Prism ([Inhibitor] vs. normalized response-Variable slope) to determine proliferation IC50 values on day 10.

[1] = tested on: sDMA marks (SmD3me2s) in U-87 MG cells; assay: Western blotting for symmetric di-methyl arginine (sDMA) marks in U-87 MG cells; type: cell-based; settings: Homo sapiens, 72 h; U-87 MG cell line, 3 days
Description: Cell Treatment and Western Blotting for Detecting Symmetric Di-Methyl Arginine (sDMA) Marks
Compound Titration and Cell Culture:
Compounds were dissolved in DMSO to make 10 mM stock and 3-fold series dilutions were further conducted to make working stocks top at 1 mM. Granta-519 cells were maintained in PRMI 1640 (Corning Cellgro, Catalog #: 10-040-CV) supplemented with 10% v/v FBS (GE Healthcare, Catalog #: SH30910.03) and U-87 MG cells were maintained in DMEM (Corning Cellgro, Catalog #: 10-013-CV) with 10% FBS and 2 mM Glutamin (Corning Cellgro, Catalog #25005CV).
To determine enzyme inhibition IC50 values in Granta-519 and U-87 MG cells using Western Blot analysis. One day before experiment, Granta-519 cells were passaged to a density of 0.5×10^6 cells/ml. U-87 MG cells were trypsinized and 4×10^5 cells were seeded into 6-well plates and allow to grow overnight. The next day, Granta-519 cells were spun down at 1,500 rpm for 4 min, resuspend in fresh medium at 0.5×10^6 cells/ml and 3 mL of culture (1.5×10^6 cells) were seeded into 6 well plate. Eight-point, 3-fold serial dilutions of compound working stocks were added to cells (3 ul, 1:1,000 dilution, DMSO concentration was 0.1%; final top concentration at 1 uM) and incubated for 3 days. Cells incubated with DMSO was used as a vehicle control.
Cells were harvested 3 days later, resuspended in 15 uL PBS, lysed in 4% SDS, and homogenized by passing through homogenizer column (Omega Biotek, Catalog #: HCR003). Total protein concentrations were determined by BCA assay (ThermoFisher Scientific, Catalog #: 23225). Lysates were mixed with 5× Laemmli buffer and boiled for 5 min. Forty ug of total protein was separated on SDS-PAGE gels (Bio-Rad, catalog #: 4568083, 4568043), transferred to PVDF membrane, blocked with 5% dry milk (Bio-Rad, Catalog #: 1706404) in TBS with 0.1% v/v Tween 20 (TBST) for 1 hour at room temperature (RT), and incubated with primary antibodies (sDMA: Cell signaling, Catalog #: 13222, 1:3,000; β-Actin: sigma, Catalog #: 1:5,000) in 5% dry milk in TBST at 4° C. overnight. The next day, membranes were washed with TBST, 5×5 min, and incubated with HRP conjugated seconded antibody (GE Healthcare; Catalog #: NA934-1ML, NA931-1ML; 1:5,000) for 2 hours at RT, followed by 5×5 min washes with TBST, and incubation with ECL substrates (Bio-Rad, Catalog #: 1705061, 1705062). Chemiluminescent signal was captured with Fluochem HD2 imager (Proteinsimple). SmD3me2s bands were quantified by ImageJ. Signals were normalized to β-Actin and DMSO control. IC50 values were calculated using Graphpad Prism ([Inhibitor] vs. normalized response-Variable slope).

PRMT5/MEP50 complex = PRMT5/MEP50 complex (Homo sapiens (Human), UniProt O14744); assay: Biochemical assay: PRMT5/MEP50 methylation of histone H4 based AcH4-23, SPA readout; settings: PRMT5/MEP50 2.5 nM, 300 nM AcH4-23, 1 μM 3H-SAM
Sequence of PRMT5/MEP50 complex (O14744 whole entry): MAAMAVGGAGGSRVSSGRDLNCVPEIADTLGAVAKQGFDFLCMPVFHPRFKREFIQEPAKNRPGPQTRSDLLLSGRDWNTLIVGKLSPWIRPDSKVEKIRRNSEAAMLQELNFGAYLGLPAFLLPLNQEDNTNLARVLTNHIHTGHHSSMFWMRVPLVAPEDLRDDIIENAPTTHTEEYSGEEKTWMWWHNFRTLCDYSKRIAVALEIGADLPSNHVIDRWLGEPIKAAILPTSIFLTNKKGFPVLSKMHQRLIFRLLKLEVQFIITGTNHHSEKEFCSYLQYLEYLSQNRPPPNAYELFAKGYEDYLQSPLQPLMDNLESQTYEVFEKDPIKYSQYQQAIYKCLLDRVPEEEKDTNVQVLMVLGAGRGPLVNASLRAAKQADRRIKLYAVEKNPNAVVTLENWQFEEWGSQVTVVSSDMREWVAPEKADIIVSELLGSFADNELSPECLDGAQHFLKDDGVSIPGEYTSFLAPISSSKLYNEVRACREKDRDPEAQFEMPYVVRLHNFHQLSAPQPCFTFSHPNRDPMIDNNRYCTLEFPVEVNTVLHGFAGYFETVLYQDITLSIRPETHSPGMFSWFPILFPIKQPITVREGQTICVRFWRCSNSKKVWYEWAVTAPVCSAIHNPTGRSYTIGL
Sequence of PRMT5/MEP50 complex (Q9BQA1 whole entry partner): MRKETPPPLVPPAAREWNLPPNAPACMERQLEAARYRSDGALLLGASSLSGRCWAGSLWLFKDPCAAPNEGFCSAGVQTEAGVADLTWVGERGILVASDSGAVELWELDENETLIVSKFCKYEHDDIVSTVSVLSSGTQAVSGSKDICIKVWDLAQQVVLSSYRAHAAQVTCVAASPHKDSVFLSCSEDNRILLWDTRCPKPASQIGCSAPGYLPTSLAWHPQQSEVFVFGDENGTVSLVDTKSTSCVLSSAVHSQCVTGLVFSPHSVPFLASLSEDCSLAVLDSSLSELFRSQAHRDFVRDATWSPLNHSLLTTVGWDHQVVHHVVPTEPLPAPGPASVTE
Description: Biochemical Assay Protocol
Compounds were solubilized and 3-fold diluted in 100% DMSO. […] Standard reactions were performed in a total volume of 30 μl in assay buffer, with 300 nM histone H4 based AcH4-23 (Anaspec: AS-65002) as substrate. To this was added the PRMT5/MEP50 complex diluted to provide a final assay concentration of 2.5 nM and the compounds were allowed to preincubate for 20 minutes at 37° C. The reaction was initiated by adding S-[3H-methyl]-adenosyl-L-methionine (PerkinElmer: NET155001MC) to final concentration of 1 μM. Following a 30 minutes incubation at 37° C., the reaction was stopped by adding 25 μL of 8M Guanidine HCl. Prepare streptavidin YSI SPA beads (Perkinelmer: RPNQ0012) at 0.3 mg/mL in assay buffer. To each reaction, add 150 μL of SPA beads suspension, and incubated while shaking at room temperature for 30 minutes. The plate was centrifuged at 100×g for 30 second before reading in a scintillation counter. IC50 values were determined by fitting the data to the standard 4 parameters with Hill Slope using GraphPad Prism software.

| SMILES | IC50 (U-87 MG cells) [nM] | IC50 [1] [nM] | IC50 (PRMT5/MEP50 complex) [nM] |
| --- | --- | --- | --- |
| Nc1ncnc2c1c(F)cn2[C@@H]1O[C@H]([C@@H]2OCCc3cc(Cl)ccc32)[C@@H](O)[C@H]1O [Example 86, (2R,3R,4S,5S)-2-(4-amino-5-fluoro-7H-pyrrolo[2,3-d]pyrimidin-7-yl)-5-((R)-6-chloroisochroman-1-yl)tetrahydrofuran-3,4-diol] | 13 | 5.4 | 2 |
| Nc1ncnc2c1ccn2[C@@H]1O[C@H]([C@@H]2OCc3cc(F)c(F)cc32)[C@@H](O)[C@H]1O [Example 4, (2R,3R,4S,5S)-2-(4-amino-7H-pyrrolo[2,3-d]pyrimidin-7-yl)-5-((R)-5,6-difluoro-1,3-dihydroisobenzofuran-1-yl)tetrahydrofuran-3,4-diol] | 95 | 31 | 1.5 |
| Nc1ncnc2c1ccn2[C@@H]1O[C@H]([C@@H]2OCCc3cc(Cl)c(Cl)cc32)[C@@H](O)[C@H]1O [Example 88, (2R,3R,4S,5S)-2-(4-amino-7H-pyrrolo[2,3-d]pyrimidin-7-yl)-5-((R)-6,7-dichloroisochroman-1-yl)tetrahydrofuran-3,4-diol] | 60 | 18.5 | 1.6 |
| CNc1ncnc2c1ccn2[C@@H]1O[C@H]([C@@H]2OCCc3cc(Cl)ccc32)[C@@H](O)[C@H]1O [Example 69, (2S,3S,4R,5R)-2-((R)-6-chloroisochroman-1-yl)-5-(4-(methylamino)-7H-pyrrolo[2,3-d]pyrimidin-7-yl)tetrahydrofuran-3,4-diol] | 181 | 109 | 14.9 |
| Nc1ncnc2c1ccn2[C@@H]1O[C@H]([C@@H]2OCCc3cc(Cl)ccc32)[C@@H](O)[C@H]1O [Example 68, (2R,3R,4S,5S)-2-(4-amino-7H-pyrrolo[2,3-d]pyrimidin-7-yl)-5-((R)-6-chloroisochroman-1-yl)tetrahydrofuran-3,4-diol] | 9.1 | 2.58 | 1.2 |
| Cc1ncnc2c1ccn2[C@@H]1O[C@H]([C@@H]2OCOc3c2ccc(F)c3F)[C@@H](O)[C@H]1O [Example 97, (2S,3S,4R,5R)-2-((R)-7,8-difluoro-4H-benzo[d][1,3]dioxin-4-yl)-5-(4-methyl-7H-pyrrolo[2,3-d]pyrimidin-7-yl)tetrahydrofuran-3,4-diol] | 117 | 51.7 | 4.7 |
| Cc1ncnc2c1ccn2[C@@H]1O[C@H]([C@@H]2OCCc3c2ccc(Cl)c3F)[C@@H](O)[C@H]1O [Example 83, (2S,3S,4R,5R)-2-((R)-6-chloro-5-fluoroisochroman-1-yl)-5-(4-methyl-7H-pyrrolo[2,3-d]pyrimidin-7-yl)tetrahydrofuran-3,4-diol] | 377 | 199 | 13.2 |
| Nc1ncnc2c1ccn2[C@@H]1O[C@H]([C@@H]2OCCc3c(Cl)cccc32)[C@@H](O)[C@H]1O [Example 72, (2R,3R,4S,5S)-2-(4-amino-7H-pyrrolo[2,3-d]pyrimidin-7-yl)-5-((R)-5-chloroisochroman-1-yl)tetrahydrofuran-3,4-diol] | 78 |  | 2.98 |
| Cc1ncnc2c1ccn2[C@@H]1O[C@H]([C@@H]2OCOCc3cc(Cl)ccc32)[C@@H](O)[C@H]1O [Example 55, (2S,3S,4R,5R)-2-((R)-7-chloro-1,5-dihydrobenzo[e][1,3]dioxepin-1-yl)-5-(4-methyl-7H-pyrrolo[2,3-d]pyrimidin-7-yl)tetrahydrofuran-3,4-diol] | 10000 | 4580 | 11.7 |
| Nc1ncnc2c1ccn2[C@@H]1O[C@H]([C@@H]2OCCc3cc(F)c(F)cc32)[C@@H](O)[C@H]1O [Example 73, (2R,3R,4S,5S)-2-(4-amino-7H-pyrrolo[2,3-d]pyrimidin-7-yl)-5-((R)-6,7-difluoroisochroman-1-yl)tetrahydrofuran-3,4-diol] | 9.1 |  | 1.45 |
| Nc1ncnc2c1ccn2[C@@H]1C[C@H]([C@@H]2OCc3cc(Cl)ccc32)[C@@H](O)[C@H]1O [Example 2B, (1R,2S,3R,5S)-3-(4-amino-7H-pyrrolo[2,3-d]pyrimidin-7-yl)-5-((S)-5-chloro-1,3-dihydroisobenzofuran-1-yl)cyclopentane-1,2-diol] | > 1000 | 563 | 31 |
| Nc1ncnc2c1ccn2[C@@H]1O[C@H]([C@@H]2OCCc3c2ccc(Cl)c3F)[C@@H](O)[C@H]1O [Example 84, (2R,3R,4S,5S)-2-(4-amino-7H-pyrrolo[2,3-d]pyrimidin-7-yl)-5-((R)-6-chloro-5-fluoroisochroman-1-yl)tetrahydrofuran-3,4-diol] | 94 | 27.6 | 4.4 |
| Cc1ncnc2c1ccn2[C@@H]1O[C@H]([C@@H]2OCCc3cc(Cl)ccc32)[C@@H](O)[C@H]1O [Example 22, (2S,3S,4R,5R)-2-((R)-6-chloroisochroman-1-yl)-5-(4-methyl-7H-pyrrolo[2,3-d]pyrimidin-7-yl)tetrahydrofuran-3,4-diol] | 54 | 17.6 | 4.8 |
| Cc1ncnc2c1ccn2[C@@H]1O[C@H]([C@@H]2OCCc3c(Cl)cccc32)[C@@H](O)[C@H]1O [Example 75, (2S,3S,4R,5R)-2-((R)-5-chloroisochroman-1-yl)-5-(4-methyl-7H-pyrrolo[2,3-d]pyrimidin-7-yl)tetrahydrofuran-3,4-diol] | 339 |  | 15.1 |
| Cc1ncnc2c1ccn2[C@@H]1O[C@H]([C@@H]2OCCc3cc(F)c(F)cc32)[C@@H](O)[C@H]1O [Example 74, (2S,3S,4R,5R)-2-((R)-6,7-difluoroisochroman-1-yl)-5-(4-methyl-7H-pyrrolo[2,3-d]pyrimidin-7-yl)tetrahydrofuran-3,4-diol] | 66 |  | 7.28 |
